Reference: paper PMC11477717, “Synthesis of Carborane–Thiazole Conjugates as Tyrosinase and 11β-Hydroxysteroid Dehydrogenase Inhibitors: Antiproliferative Activity and Molecular Docking Studies” (Molecules, 2024)
Like-named read-outs stand apart in the source and are kept apart here.

Assays:
mushroom tyrosinase [1] = biological target: T1, mushroom tyrosinase (Agaricus bisporus, UniProt C7FF04); assay: Mushroom tyrosinase inhibition assay (L-DOPA, dopachrome 475 nm); assay type: biochemical
T1 construct: purchased Sigma-Aldrich
T1 sequence (C7FF04 1-392 limits assumed): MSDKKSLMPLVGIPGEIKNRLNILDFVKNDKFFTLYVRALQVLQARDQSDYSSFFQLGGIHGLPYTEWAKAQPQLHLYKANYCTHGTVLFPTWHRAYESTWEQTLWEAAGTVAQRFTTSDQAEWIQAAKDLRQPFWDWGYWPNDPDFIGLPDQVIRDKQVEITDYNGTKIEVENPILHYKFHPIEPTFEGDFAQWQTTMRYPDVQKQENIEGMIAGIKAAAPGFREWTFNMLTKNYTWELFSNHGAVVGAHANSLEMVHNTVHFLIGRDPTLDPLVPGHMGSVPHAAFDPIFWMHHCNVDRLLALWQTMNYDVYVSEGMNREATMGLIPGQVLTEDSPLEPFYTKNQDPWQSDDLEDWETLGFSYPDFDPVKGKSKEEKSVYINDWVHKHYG
Protocol: The mushroom tyrosinase (Sigma-Aldrich) inhibition was performed following previously reported methods. […] The inhibitor solutions were prepared in DMSO with an initial concentration of 1 mM. Different aliquots were added to the solution containing the buffer, L-DOPA, and EDTA, with the enzyme being added last. […] Ascorbic acid was used as a reference inhibitor with an initial concentration of 1 mM. The IC50 values were calculated from the equation generated via exponential fit of the experimental data.

[2] = system: MDA-MB-231 (human breast adenocarcinoma); assay: MTT antiproliferative assay, MDA-MB-231; assay type: cell-based; settings: for IC50: MTT, 72 h, MDA-MB-231 cells, read-out: IC50 ± SD MDA-MB-231; for SI HUVEC/ MDA-MB-231: selectivity index = IC50 normal cell line / IC50 cancer cell line
Protocol: (§1) All cell lines were obtained from ATCC, and all chemicals were purchased from Sigma-Aldrich, St. Louis, MO, USA. […] All media were supplemented with antibiotic and antimycotic solutions, according to the manufacturers’ instructions. MTT cytotoxicity assessments were performed as described previously. […] The cells counted using an automated cell counter (Countess® II FL, Invitrogen by Thermo Fisher Scientific Inc., Waltham, MA, USA) were plated in 96-well plates (Nunc Edge 2F, Thermo Fisher Scientific Inc.) at a density of 0.1 × 10^4 per well. After an additional 72 h, cells underwent an MTT cytotoxicity assay (see below). The IC50 values were calculated using ED50plus v 1.0 freeware software (Instituto Nacional de Enfermedades Respiratorias, Mexico City, Mexico). Each cell line was tested in three independent replicates.
(§2) After the incubation time was complete, the medium was removed and crystals of formazan were solubilized in pure isopropanol. The absorbance readout was conducted immediately using a plate reader, Multiskan Spectrum, at 570 nm (Thermo Fisher Scientific Inc., Waltham, MA, USA). The background optical density was measured in the wells filled with the culture medium, without any cells.

[3] = system: A172 (human brain glioblastoma); assay: MTT antiproliferative assay, A172; assay type: cell-based; settings: for IC50: MTT, 72 h, A172 cells, read-out: IC50 ± SD A172; for SI HUVEC/A172: selectivity index = IC50 normal cell line / IC50 cancer cell line
Protocol: as §1, §2

[4] = system: HUVEC (human umbilical vein endothelial cells); assay: MTT antiproliferative assay, HUVEC healthy control; assay type: cell-based; settings: 72 h, HUVEC normal cells, read-out: IC50 ± SD HUVEC
Protocol: All cell lines were obtained from ATCC, and all chemicals were purchased from Sigma-Aldrich, St. Louis, MO, USA. Briefly, cells were cultivated in a controlled atmosphere using DMEM medium with fetal bovine serum (FBS) at a final concentration of 10% (A-172), an L15 medium with 15% FBS, cultivated without CO2 (MDA-MB-231), F12K with a heparin final concentration of 0.1 mg/mL, endothelial cell growth supplement with a final concentration of 0.03 mg/mL (HUVEC), and RPMI with 5% FBS. All media were supplemented with antibiotic and antimycotic solutions, according to the manufacturers’ instructions. MTT cytotoxicity assessments were performed as described previously. Briefly, cell lines A172, B16F10, MDA-MB-231, and HUVEC were seeded 24 h prior to the addition of the tested compounds. The cells counted using an automated cell counter (Countess® II FL, Invitrogen by Thermo Fisher Scientific Inc., Waltham, MA, USA) were plated in 96-well plates (Nunc Edge 2F, Thermo Fisher Scientific Inc.) at a density of 0.1 × 10^4 per well. After an additional 72 h, cells underwent an MTT cytotoxicity assay (see below). The IC50 values were calculated using ED50plus v 1.0 freeware software (Instituto Nacional de Enfermedades Respiratorias, Mexico City, Mexico). Each cell line was tested in three independent replicates.
as §2, with “Twenty microliters of an MTT solution (MTT: 3-(4,5-dimethylthiazol-2-yl)-2,5-diphenyl tetrazolium bromide, stock solution: 5 mg/mL) was added to each cell line for 2 h (A172, B16F10, MDA-MB-231, and HUVEC). After” for “After”

B16F10 (murine melanoma) = assay: MTT antiproliferative assay, B16F10; assay type: cell-based; settings: for IC50: MTT, 72 h, B16F10 cells, read-out: IC50 ± SD B16F10; for SI HUVEC/ B16F10: selectivity index = IC50 normal cell line / IC50 cancer cell line
Protocol: as §1, §2

mushroom tyrosinase [5] = biological target: T1, mushroom tyrosinase; assay: Kinetic analysis of the inhibition of tyrosinase (Lineweaver-Burk); assay type: biochemical; settings: compound at 0.05 mM; for Mechanism of Inhibition: Lineweaver-Burk plots; for Vmax: L-DOPA 100-250 µM
Protocol: A series of experiments were performed to determine the inhibition kinetics of compounds by following the already reported method. The inhibitor concentrations for compounds were 50 and 100 µM. The substrate L-DOPA concentration was between 100 and 250 µM in all kinetic studies. Maximal initial velocity was determined from the initial linear portion of absorbance up to ten minutes after the addition of the enzyme. The inhibition type of the enzyme, Michaelis constant (KM), and maximal velocity (Vmax) were determined by Lineweaver–Burk plots of the inverse of velocities (1/V) versus the inverse of substrate concentration 1/[L-DOPA] mM^−1.

11β-HSD2 = biological target: T2, 11β-HSD2 (Homo sapiens, UniProt P80365); assay: Inhibition of 11β-HSD2 assay (cortisol to cortisone, microsomes, cortisol ELISA); assay type: biochemical; settings: inhibitor 10 µM, 150 min, 37 °C
T2 construct: Human kidney microsomes, mixed gender, 0.5 mL, 10 mg/mL, Lot No. 1710160, were obtained from XenoTech; tissue XenoTech Lot No. 1710160; host or cells: human kidney microsomes
T2 sequence (P80365 1-405): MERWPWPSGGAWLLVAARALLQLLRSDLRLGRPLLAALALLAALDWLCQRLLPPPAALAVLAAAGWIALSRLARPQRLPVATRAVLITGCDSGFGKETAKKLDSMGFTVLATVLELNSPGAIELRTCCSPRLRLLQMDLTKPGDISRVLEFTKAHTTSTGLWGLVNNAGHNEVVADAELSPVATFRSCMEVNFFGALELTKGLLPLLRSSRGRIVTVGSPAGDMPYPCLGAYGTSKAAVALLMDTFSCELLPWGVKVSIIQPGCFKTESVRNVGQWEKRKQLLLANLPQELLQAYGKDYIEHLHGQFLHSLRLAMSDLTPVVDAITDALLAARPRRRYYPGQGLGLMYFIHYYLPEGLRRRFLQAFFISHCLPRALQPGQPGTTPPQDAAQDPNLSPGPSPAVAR
Protocol: The Enzyme-Linked Immunosorbent Assay (ELISA) Kit for 11-Beta-Hydroxysteroid Dehydrogenase Type 1, Lot No. L160706125, was obtained from Cloud-Clone Corp. PBS, Lot No. H161008, was obtained from Pan Biotech. […] The Enzyme-Linked Immunosorbent Assay (ELISA) Kit for 11-Beta-Hydroxysteroid Dehydrogenase Type 2, Lot No. L191113457, was obtained from Cloud-Clone Corp.
The oxidation reaction of cortisol to cortisone was carried out on 96-well microtiter plates in the presence of the enzyme 11β-HSD2 in a total volume of 100 µL. To this end, 60 µL of phosphate buffer (pH 7.4), 10 µL of a microsomes(0.12 µg/mL […]) solution in PBS (final quantity 2.5 µg), 20 µL of substrate mixture cortisol/NAD (final concentration 200 nM/2 mM), and 10 µL of the appropriate inhibitor solution (solvent DMSO/water 1/99, final concentration 10 µM) were placed in each well. The microplates were incubated on an orbital shaker for 150 min at 37 °C. […] The quantity of unreacted cortisol was determined using a cortisol ELISA kit DiaMetra.

11β-HSD1 = biological target: T3, 11β-HSD1 (Homo sapiens, UniProt P28845); assay: Inhibition of 11β-HSD1 assay (cortisone to cortisol, microsomes, cortisol ELISA); assay type: biochemical
T3 construct: tissue XenoTech Lot No. 1410013; host or cells: pooled human liver microsomes
T3 sequence (P28845 whole entry): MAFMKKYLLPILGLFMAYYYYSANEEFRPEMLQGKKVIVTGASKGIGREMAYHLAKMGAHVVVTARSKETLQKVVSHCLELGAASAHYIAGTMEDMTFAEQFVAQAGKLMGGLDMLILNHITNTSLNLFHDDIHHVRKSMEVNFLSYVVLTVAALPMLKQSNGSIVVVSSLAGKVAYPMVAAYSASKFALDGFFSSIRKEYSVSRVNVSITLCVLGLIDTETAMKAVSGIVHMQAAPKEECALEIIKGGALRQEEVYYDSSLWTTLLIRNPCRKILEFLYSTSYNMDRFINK
Protocol: L160706125, was obtained from Cloud-Clone Corp. PBS, Lot No. H161008, was obtained from Pan Biotech. […] L191113457, was obtained from Cloud-Clone Corp. […] The microplates were incubated on an orbital shaker for 150 min at 37 °C. […] The quantity of cortisol formed from cortisone was determined using a cortisol ELISA kit, […].

[6] = L-DOPA 0.17 mM, pH 6.8, room temperature, read-out: IC50 ± SD mushroom tyrosinase
[7] = rounded values in SAR summary, unit mM, read-out: IC50 tyrosinase inhibition
[8] = 5 inhibitor concentrations, three independent determinations, read-out: IC50 ± SD 11β-HSD1
[9] = inhibitor 10 µM, 150 min, 37 °C
[10] = values in SAR summary, unit inferred, read-out: IC50 11β-HSD1 (unit inferred)

Compound	IC50 (mushroom tyrosinase [1]; [6])	IC50 [2]	IC50 [3]	IC50 [4]	IC50 (B16F10 (murine melanoma))	SI HUVEC/ B16F10 (B16F10 (murine melanoma))	Mechanism of Inhibition (mushroom tyrosinase [5])	Vmax (mushroom tyrosinase [5])	% of 11β-HSD2 Inhibition 10 μM (11β-HSD2)	IC50 (mushroom tyrosinase [1]; [7])	SI HUVEC/ MDA-MB-231 [2]	SI HUVEC/A172 [3]	IC50 (11β-HSD1; [8])	% of 11β-HSD1 Inhibition 10 μM (11β-HSD1; [9])	IC50 (11β-HSD1; [10])	inhibition at 10 µM (11β-HSD1; [9])	IC50 ([2]; Homo sapiens)	IC50 ([3]; Homo sapiens, A 172)	IC50 ([4]; Homo sapiens)	IC50 (B16F10 (murine melanoma); Mus musculus, B16-F10)
2-(2-(1,2-Dicarba-closo-Dodecaboranylmethylene)Hydrazinyl)-4-(3,4,5-Trimethoxyphenyl)Thiazole [4i]	0.18 ± 0.00783 mM	> 10 µM	> 10 µM	> 10 µM	5.88 µM	>1.70	Mixed	0.5474 mM/min												
2-(2-(1,2-Dicarba-closo-Dodecaboranylmethylene)Hydrazinyl)-4-(3,4-Dichlorophenyl)Thiazole [4e]	0.142 ± 0.013 mM	6.99 ± 2.27 µM	6.44 ± 0.6 µM	7.86 ± 0.61 µM	5.58 ± 0.35 µM	1.41	Activator	0.1575 mM/min	19.34%	0.142 mM	1.12	1.22	7.9 ± 1.4 µM	62.17%	7.9 to 8.1 µM					
2-(2-(1,2-Dicarba-closo-Dodecaboranylmethylene)Hydrazinyl)-4-(4-Fluorphenyl)Thiazole [4c]	0.143 ± 0.00938 mM	6.02 ± 0.08 µM	7.1 ± 1.9 µM	7.51 ± 0.64 µM	5.57 ± 0.39 µM	1.35	Activator	0.0810 mM/min	21.70%		1.25	1.06	8.1 ± 2 µM	55.74%	7.9 to 8.1 µM					
2-(2-(1,2-Dicarba-closo-Dodecaboranylmethylene)Hydrazinyl)-4-(4-Methoxyphenyl)Thiazole [4f]	0.0494 ± 0.00801 mM	7.32 ± 1.26 µM	> 10 µM	> 10 µM	5.81 ± 0.82 µM	>1.72	tyrosinase activator	0.1472 mM/min	29.25%		>1.37		9.35 ± 1.85 µM	55.54%						
4-(2-(2-(1,2-Dicarba-closo-Dodecaboranylmethylene)Hydrazinyl)Thiazol-4-yl)Benzene-1-Sulfonyl Fluoride [4j]		6.43 ± 0.23 µM	6.4 ± 0.71 µM	> 10 µM	5.75 ± 0.46 µM	>1.74	Mixed	0.7876 mM/min			>1.56	>1.56								
4-(2-(2-(1,2-Dicarba-closo-Dodecaboranylmethylene)Hydrazinyl)Thiazol-4-yl)Benzonitrile [4h]		6.64 ± 0.81 µM	7.72 ± 1.25 µM	6.17 ± 0.35 µM	5.56 ± 0.3 µM	1.11	Mixed	0.1258 mM/min			0.93	0.80								
4-(Adamant-1-yl)-2-(2-(1,2-Dicarba-closo-Dodecaboranylmethylene)Hydrazinyl)Thiazole [4k]	0.134 ± 0.00584 mM	> 10 µM	> 10 µM	5.86 ± 0.34 µM	> 10 µM		Mixed	0.7863 mM/min		0.134 mM										
O=C1O[C@H]([C@@H](O)CO)C(O)=C1O [Ascorbic acid, reference compound]	0.387 ± 0.012 mM																			
CC1(C)[C@@H](OC(=O)CCC(=O)O)CC[C@]2(C)[C@H]3C(=O)C=C4[C@@H]5C[C@@](C)(C(=O)O)CC[C@]5(C)CC[C@@]4(C)[C@]3(C)CC[C@@H]12 [Carbenoxolone, carbenoxolone, reference compound]																88.9%				
O=C(O)CCCc1ccc(N(CCCl)CCCl)cc1 [chlorambucil, reference compound]						1.37											> 10 µM	> 10 µM	7.43 ± 0.54 µM	5.44 ± 0.19 µM
